Test results taken from BindingDB's records for doi:10.7270/Q2PC30S2 (Nmmlsc, 2010).

Biological target: Ras-related C3 botulinum toxin substrate 1 (Mus musculus, UniProt P63001)
Assay: activated Rac1 mutant nucleotide-binding inhibitors – biochemical, multiplex, GST-Rac1 beads, Bodipy-FL-GTP, flow cytometry, dose response (AID 1339)

| Compound | EC50 [µM] |
| --- | --- |
| CNC(=S)N/N=C1\C(=O)Nc2ccccc21 [1-methyl-3-[(2-oxoindol-3-yl)amino]thiourea] | 91.6 |
| O=C1C([N+](=O)[O-])=Cc2oc3c(c2C1/C=N/Cc1ccccc1)CCCC3 (configuration not stated) [(1Z)-3-nitro-1-[[(phenylmethyl)amino]methylidene]-6,7,8,9-tetrahydrodibenzofuran-2-one] | 5.79 |
